The values that follow come from the supplement of paper PMC10307832.

Assay in all cases: relative viability (nuclei count vs DMSO), 5 days (fraction); higher = more cells survive
Compound in test [1]: NCC(=O)Nc1ccc(-n2nc(C(F)(F)F)cc2-c2ccc3c(ccc4ccccc43)c2)cc1 + CS(=O)(=O)CCNCc1ccc(-c2ccc3ncnc(Nc4ccc(OCc5cccc(F)c5)c(Cl)c4)c3c2)o1 [Lapatinib] (partner 2 µM)
In a few lines:
(§1)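 Dosing by pin tool came one day after lung cancer cell lines were seeded in 1536-well plates, using either one drug or a fixed anchor-drug dose plus five library-drug doses (not always all listed) in √10 steps. After 5 days, nuclei were counted on 4× images. Relative viability is treated-well nuclei count divided by vehicle-well nuclei count, and values are medians of duplicate plates.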

Compound in test [2]: NCC(=O)Nc1ccc(-n2nc(C(F)(F)F)cc2-c2ccc3c(ccc4ccccc43)c2)cc1 + O=C(CCCCCCC(=O)Nc1ccccc1)NO [Vorinostat] (partner 1 µM)
A digest of the protocol:
as §1

Compound in test [3]: C1CSC2=C(C(=O)N1)SC3=C2C=C(C=C3)O [kb NB 142-70] + CS(=O)(=O)N1CCN(Cc2cc3nc(-c4cccc5[nH]ncc45)nc(N4CCOCC4)c3s2)CC1 [Pictilisib] (partner 1 µM)
A digest of the protocol:
as §1

Compound in test [4]: NCC(=O)Nc1ccc(-n2nc(C(F)(F)F)cc2-c2ccc3c(ccc4ccccc43)c2)cc1 + COc1cc2c(Oc3ccc(NC(=O)C4(C(=O)Nc5ccc(F)cc5)CC4)cc3F)ccnc2cc1OCCCN1CCOCC1 [Foretinib] (partner 0.25 µM)
A digest of the protocol: as §1

Regarding UMC-11, the relative viability in test [1] (first compound 0.02 µM) came to 0.952; in test [1] (first compound 0.06325 µM), 1.09; in test [1] (first compound 0.2 µM) it was 0.985; in test [1] (first compound 0.6325 µM) it was 1.15; in test [1] (first compound 2 µM) it was 0.898; in test [2] (first compound 0.02 µM), 0.337. Further, the relative viability in test [2] (first compound 0.06325 µM) was found to be 0.434; in test [2] (first compound 0.2 µM), 0.511; in test [2] (first compound 0.6325 µM), 0.355; in test [2] (first compound 2 µM), 0.383; in test [3] (first compound 0.1 µM), 0.83; in test [3] (first compound 1 µM) it was 0.719. For the same cell line, the relative viability in test [3] (first compound 3.162 µM) was determined as 0.44; in test [4] (first compound 0.02 µM), 0.974; in test [4] (first compound 0.06325 µM), 1.04; in test [4] (first compound 0.2 µM), 1.06; in test [4] (first compound 0.6325 µM), 1.01; in test [4] (first compound 2 µM) it was 1.11.
